# Laboratory results: publication PMC6836573, “Mitochondria-targeting fluorescent molecules for high efficiency cancer growth inhibition and imaging” (Chemical Science, 2019)
# pIC50: −log10 of the molar value.
# Key:
# [1] = Cytotoxicity assay (direct cell counting), NIH-3T3; assay type: cell-based; conditions: mouse; NIH-3T3 normal cells; 3 days incubation, viable cells counted
# Experimental: (§1) Cell culture, imaging, and cytotoxicity assay
# (§2) RPMI-1640 medium. NIH/3T3 was cultured in DMEM medium. A549 was cultured in F-12K medium. T24 were cultured in McCoy's 5A medium. All culture mediums were supplemented with 10% fetal bovine serum. The cells were incubated at 37 °C in an atmosphere containing 5% CO 2. […]
# (§3) Cytotoxicity assay. All test cell lines were incubated in 96-well plates overnight at a density of 3000 cells/well. The culture medium was replaced with 200 μL of culture medium, into which the testing compound was dispersed at various concentrations (1.95 - 500 μM). After incubating for 3 days, the viable cell numbers were checked and directly counted under microscopy (10X). A minimum of 1mm×1mm area was counted from each of at least three widely separated regions of cell culture. The cell proliferation rate was calculated by the following formula: cell proliferation rate (%) = (average cell number of sample wells / average cell number of control wells) ×100%.
# (§4) The intact culture medium was evaluated as a control. […]
# H1944 NSCLC cell line = experiment: Cytotoxicity assay, H1944; assay type: cell-based; conditions: Homo sapiens, NCI-H1944; H1944 cells
# Experimental: as §1, §2, §3, §4
# [2] = system: subcutaneous HCC827 tumor; experiment: In vivo and ex vivo fluorescence imaging of HCC827 tumor-bearing mice; design: species or system nude mice
# Experimental: HCC827 cells suspended in 150 µL of PBS were inoculated subcutaneously in the right shoulder […]
# When the tumors reached ~3 mm in diameter, the tumor-bearing mice were administered i.v. with 5BMF (dissolved in 150 µL PBS, with 2 µL DMSO) at 15 mg/Kg on days 1, 3, 5, 7, 9, 11, 13, 15, 17, 19, 21. Correspondingly, untreated tumor-bearing mice serving as controls were administered i.v. with 150 µL 1× PBS pH 7.4 (with 2 µL DMSO) on the same days as the treated mice. Ten mice were used for each group. Length and width of the elliptical tumors were measured by Vernier caliper after every intravenous injection. Modified ellipsoid formula ½ (Length × Width2) was used to calculate the tumor size. The tumor growth was calculated with the ratio of final volume (FV) minus initial volume (IV) to initial volume (IV).
# In vivo fluorescent imaging was taken 40 minutes and 2 hours after the injection of 5BMF 15 mg/kg. IVIS spectrum instrument was used. The excitation wavelength was set at 450 nm.
# Collection wavelength was set at 550 nm, using a 3s acquisition time. 4 mice for each group were used. Mice were sacrificed and the organs were harvest after each set of in vivo imaging.
# Fluorescent images of the organs were taken under the same settings.
# The tumor tissues and some important organs such as liver, kidney, lung, heart were isolated. After frozen, the specimens sectioned at 5-8 µm and processed for a standard hematoxylin-eosin (H&E) staining. Slides were viewed and photographed with the Nanozoomer Digital Pathology Image […]
# The body weights of mice are presented as means ± standard deviation (SD) of n independent measurements. The tumor volumes are presented as means ± standard error of mean (SEM) of n independent measurements. Statistical analysis was performed using a Student’s t-test or Mann-Whitney U test. Statistical significance was assigned for P values <0.05.
# Detail F16s Synthesis information
# [3] = pH stability (integrated fluorescence intensity); assay type: physicochemical; conditions: pH 3.0–10.0 buffers, 24 h, 10 µM
# Experimental: with 10 µM concentration). pH 3.0~7.0 buffers are sodium hydrogen phosphate and trisodium buffer; pH 7.4~10.0 buffers are phosphate buffered saline. 5BMF was put into different pH buffer with the concentration of 10 µM. 5BMF solutions were taking out at 1, 2, 3, 4, 5, 6, 7, 8, 16, 24 h time point. And their integrated fluorescent intensity (from 450 nm to 650 nm) were measured (excited at 425 nm). All data were analyzed using Origin Pro 9.0 software (OriginLab, Northampton, Massachusetts, USA).
# (1 picture or pasted object on this page, not shown here)
# [4] = Self-assembly into nanoparticles (TEM, DLS); assay type: physicochemical; conditions: 1× pH 7.4 PBS, 5 mM to 0.125 mM
# [5] = Relative fluorescence quantum yield; assay type: physicochemical; conditions: EtOH, relative to rhodamine 6G, excited at 425 nm
# Experimental: Quantum yield. The fluorescence quantum yields of F16s were determined according to the […]
# Where Φ is the quantum yield, F is the integrated area under the corrected emission spectrum, and A is the absorbance at the excitation wavelength; the subscripts x and s refer to F16s and the standard, respectively. Rhodamine 6G (ΦF = 95%) in ethanol was used as the standard. All F16s and Rhodamine 6G were dissolved in ethanol in 5 different concentrations with the absorbance lower than 0.1 at 425nm. The corresponding 5 different fluorescences of F16s and Rhodamine 6G were excited at 425 nm and the emission spectra from 450 nm to 650 nm were obtained for the following integrated area measurement. All data were analyzed using Origin Pro 9.0 software (OriginLab, Northampton, Massachusetts, USA) to get the F16s final quantum yield. […]
smiles,measurement,setting,value
Cc1cc(Br)cc2c(/C=C/c3cc[n+](C)cc3)c[nH]c12 [5BMF],IC50 at 3 days,[1],11 µM
same,pIC50,H1944 NSCLC cell line,6.58
same,"accumulation in tumor, kidney, bone, stomach, bowel, pancreas and skin",[2]; ex vivo imaging at 40 min and 2 h PI,"accumulated more 5BMF compared with the liver, spleen, heart, lung, and brain"
same,tumor/lung ratio,"[2]; ex vivo imaging, 2 h PI, 15 mg/kg",~7
same,tumor to background ratio,"[2]; in vivo fluorescence, 2 h post IV injection, 15 mg/kg",~2
same,decay in buffers of different pH,[3],less than 20%
same,size of self-assembled nanoparticles,[4],~120 nm
same,Quantum Yield,[5],19.7%
same,Quantum Yield,[5]; listed as 3,around 20%
